Experimental data published in paper PMC6199744, “Development of Chemical Proteomics for the Folateome and Analysis of the Kinetoplastid Folateome” (ACS Infectious Diseases, 2018).

Tested on: L. major lysate proteins
Assay: Multitargeted bead mixture chemoproteomics, single concentration competition, proteome-wide
Format: binding
Settings: for fold change: vehicle control = 1

## NCCCNc1ccc(C(=O)NC(CCC(=O)O)C(=O)O)cc1 (stereo not drawn) [compound 7]
Protein LMJF.15.0040 HYPOTHETICAL PROTEIN, CONSERVED (Possible lysine decarboxylase, putative)
  fold change: 0.73
Protein LMJF.15.0690 HY[…], CONSERVED
  fold change vs vehicle control: 1.02
Protein LMJF.15.1010 GLUTAMATE DEHYDROGENASE
  fold change: 1.04
Protein LMJF.15.1190 HY[…], CONSERVED (cyclic nucleotide-binding domain containing protein, putative)
  fold change: 1.08
Protein LMJF.16.0520 HY[…], CONSERVED
  fold change vs vehicle control: 1.02
Protein LMJF.16.0540 ASPARTATE CARBAMOYLTRANSFERASE, PUTATIVE
  fold change vs vehicle control: 0.99
Protein LMJF.16.0760, TRANSALDOLASE, PUTATIVE
  fold change relative to vehicle control: 0.99
Protein LMJF.16.0940 DYNEIN LIGHT CHAIN, PUTATIVE
  fold change vs vehicle control: 1.11
Protein LMJF.16.1180, COATOMER DELTA SUBUNIT-LIKE PROTEIN
  fold change relative to vehicle control: 1.2
Protein LMJF.16.1320, […], PUTATIVE
  fold change relative to vehicle control: 1.34
Protein LMJF.16.1420, HY[…], CONSERVED
  fold change relative to vehicle control: 1.05
Protein LMJF.17.0081, […] 1-ALPHA
  fold change relative to vehicle control: 1.09
Protein LMJF.18.0270, GLYCOGEN SYNTHASE KINASE, PUTATIVE
  fold change relative to vehicle control: 0.98
Protein LMJF.18.0580 P[…]-COA HYDRATASE, PUTATIVE
  fold change: 1.04
Protein LMJF.18.0680, CITRATE SYNTHASE, PUTATIVE
  fold change relative to vehicle control: 1.06
Protein LMJF.18.1010 DYNEIN LIGHT CHAIN 2B, CYTOPLASMIC, PUTATIVE
  fold change vs vehicle control: 1.15
Protein LMJF.18.1210 PROLYL-TRNA SYNTHETASE, PUTATIVE,BI[…]-TRNA SYNTHETASE, PUTATIVE
  fold change vs vehicle control: 1.03
Protein LMJF.18.1370 HEAT SHOCK PROTEIN, PUTATIVE
  fold change vs vehicle control: 1.14
Protein LMJF.19.0200 ADP,ATP CARRIER PROTEIN 1, MIT[…], PUTATIVE
  fold change: 1.08
Protein LMJF.19.1120 […]-ATP-ASE SUBUNIT, PUTATIVE
  fold change vs vehicle control: 1.07
Protein LMJF.19.1160 HYPOTHETICAL PROTEIN, CONSERVED
  fold change vs vehicle control: 0.99
Protein LMJF.19.1560 INOSINE-5'-MONOPHOSPHATE DEHYDROGENASE
  fold change vs vehicle control: 0.97
Protein LMJF.19.1620, POTASSIUM VOLTAGE-GATED CHANNEL, PUTATIVE
  fold change relative to vehicle control: 1.12
Protein LMJF.20.1280 SMALL MYRISTOYLATED PROTEIN 4, PUTATIVE
  fold change vs vehicle control: 0.92
Protein LMJF.21.0810 METHIONYL-TRNA SYNTHETASE, PUTATIVE
  fold change: 0.87
Protein LMJF.21.1450 ARGININE N-METHYLTRANSFERASE, TYPE II, PUTATIVE
  fold change: 1.06
Protein LMJF.21.1830 […] 5 SUBUNIT, PUTATIVE,20S […] ALPHA 5, (PUTATIVE)
  fold change vs vehicle control: 1.01
Protein LMJF.22.0230 AMINO ACID PERMEASE, PUTATIVE
  fold change: 1.14
Protein LMJF.22.0570 […] SUBUNIT 1, PUTATIVE
  fold change vs vehicle control: 1.04
Protein LMJF.22.0730 HYPOTHETICAL PROTEIN, CONSERVED
  fold change vs vehicle control: 0.96
Protein LMJF.22.0770 NADH-CYTOCHROME B5 REDUCTASE, PUTATIVE
  fold change: 0.85
Protein LMJF.23.0020, HYPOTHETICAL PROTEIN, CONSERVED
  fold change relative to vehicle control: 1.99
Protein LMJF.23.0040, PEROXIDOXIN
  fold change relative to vehicle control: 0.99
Protein LMJF.23.0080, HYPOTHETICAL PROTEIN, CONSERVED
  fold change relative to vehicle control: 0.99
Protein LMJF.23.0210 ATP-BINDING CASSETTE PROTEIN SUBFAMILY C, MEMBER 1, PUTATIVE
  fold change: 1.03
Protein LMJF.23.0370 CYTOCHROME C OXIDASE SUBUNIT 10, PUTATIVE
  fold change: 0.97
Protein LMJF.23.0540, ACETYL-COA SYNTHETASE, PUTATIVE
  fold change relative to vehicle control: 1.01
Protein LMJF.23.0560 KINESIN, PUTATIVE
  fold change vs vehicle control: 0.91
Protein LMJF.23.1410 HY[…], CONSERVED
  fold change vs vehicle control: 1.12
Protein LMJF.24.0070, HY[…], CONSERVED
  fold change relative to vehicle control: 1.03
Protein LMJF.24.0140 ANKYRIN/TPR REPEAT PROTEIN
  fold change: 0.93
Protein LMJF.24.0400 HYPOTHETICAL PROTEIN, CONSERVED (TPR repeat, putative)
  fold change: 0.96
Protein LMJF.24.1510, IGE-DEPENDENT HISTAMINE-RELEASING FACTOR, PUTATIVE
  fold change relative to vehicle control: 0.85
Protein LMJF.24.1630, SUCCINATE DEHYDROGENASE FLAVOPROTEIN, PUTATIVE
  fold change relative to vehicle control: 1
Protein LMJF.24.2060, TRANSKETOLASE
  fold change relative to vehicle control: 1.02
Protein LMJF.25.0010, BETA […] TRANSFERASE
  fold change relative to vehicle control: 1.21
Protein LMJF.25.0910, CYCLOPHILIN A
  fold change relative to vehicle control: 0.9
Protein LMJF.25.1130 […] OXIDASE VII, PUTATIVE
  fold change vs vehicle control: 1.09
Protein LMJF.25.1180, ATPASE BETA SUBUNIT, PUTATIVE
  fold change relative to vehicle control: 1.06
Protein LMJF.25.1610 HY[…], CONSERVED
  fold change vs vehicle control: 1.08
Protein LMJF.25.1620 HYPOTHETICAL PROTEIN, CONSERVED
  fold change vs vehicle control: 0.99
Protein LMJF.25.2340 SERINE/THREONINE-PROTEIN KINASE, PUTATIVE,PROTEIN KINASE, PUTATIVE
  fold change: 0.83
Protein LMJF.26.0630, HY[…], CONSERVED
  fold change relative to vehicle control: 1.11
Protein LMJF.26.1240 HEAT SHOCK PROTEIN 70-RELATED PROTEIN
  fold change vs vehicle control: 1.06
Protein LMJF.26.1710 […] OXIDASE SUBUNIT V, PUTATIVE
  fold change: 1.03
Protein LMJF.26.2480 CDP-DIACYLGLYCEROL--INOSITOL 3-[…], PUTATIVE
  fold change vs vehicle control: 1.06
Protein LMJF.26.2560 HYPOTHETICAL PROTEIN, CONSERVED
  fold change vs vehicle control: 0.94
Protein LMJF.27.0190 PROTEASOME ALPHA 7 SUBUNIT, PUTATIVE
  fold change vs vehicle control: 0.97
Protein LMJF.27.0650 HY[…], CONSERVED
  fold change: 1.07
Protein LMJF.27.0700 HYPOTHETICAL PROTEIN, CONSERVED
  fold change: 1.67
Protein LMJF.27.0760 GTP-binding protein homologue
  fold change vs vehicle control: 0.78
Protein LMJF.27.1060 CYSTEINE DESULFURASE, PUTATIVE
  fold change vs vehicle control: 0.93
Protein LMJF.27.1110 MIT[…] BINDING PROTEIN 1,GBP21, MRP1
  fold change vs vehicle control: 1.07
Protein LMJF.27.1250 HYPOTHETICAL PROTEIN, CONSERVED (Serine-threonine kinase receptor-associated protein, putative)
  fold change: 0.97
Protein LMJF.27.1390, 60S ACIDIC RIBOSOMAL SUBUNIT PROTEIN, PUTATIVE
  fold change relative to vehicle control: 1.05
Protein LMJF.27.1460 PROTEASOME REGULATORY NON-ATP-ASE SUBUNIT 3, PUTATIVE
  fold change: 0.87
